Measurements taken from patent publication US20240316038A1, “APOL1 INHIBITORS AND METHODS OF USE” (Maze Therapeutics, Inc., priority 2021, published 2024).

Columns and labels:
[1] = molecular target: T1, APOL1 G2 (Homo sapiens, UniProt O14791, DEL388-389); assay: APOL1 calcium transport inhibition assay (GCaMP6f calcium influx, FLIPR) in HEK T-REx/GCaMP6f/APOL1 G2 K6.3 cells; format: cell-based; settings: inhibition of APOL1-mediated calcium influx; geometric mean of at least 2 assay runs, † = single assay run (technical duplicate)
T1 construct: expressed in transfected cells; host or cells: HEK293 T-REx clonal lines: HEK T-REx/GCaMP6f/APOL1 G2 K6.3 in A1, HEK293/T-REx APOL1 G2/clone #2 in A2
T1 sequence (O14791 with tags, fused parts or gaps DEL388-389): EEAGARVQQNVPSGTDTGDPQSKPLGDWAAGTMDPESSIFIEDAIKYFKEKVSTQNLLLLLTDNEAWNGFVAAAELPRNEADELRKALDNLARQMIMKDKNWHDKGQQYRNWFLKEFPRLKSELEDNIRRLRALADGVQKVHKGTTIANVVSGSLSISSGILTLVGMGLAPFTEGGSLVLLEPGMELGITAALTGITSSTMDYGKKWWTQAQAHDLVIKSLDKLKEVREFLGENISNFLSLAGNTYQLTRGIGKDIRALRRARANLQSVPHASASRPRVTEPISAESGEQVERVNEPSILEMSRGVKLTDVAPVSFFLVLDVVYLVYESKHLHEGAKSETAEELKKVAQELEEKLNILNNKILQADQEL
Method: A HEK293 clonal cell line was generated to stably express GCaMP6f, a genetically encoded calcium indicator, and inducibly express APOL1 G2 (HEK T-REx/GCaMP6f/APOL1 G2 K6.3). Cells were maintained in the following standard complete medium: DMEM with 4.5 g/L glucose and sodium pyruvate (BioWhittaker, Lonza, BE12-614F), supplemented with 10% FBS Performance Plus (Gibco, 16000044), 1% penicillin-streptomycin (BioWhittaker, DE17-602E), 2 mM ultraglutamine-1 (BioWhittaker cat. BE 17-605/U1), 50 μg/mL Zeocin (InvivoGen, ant-zn), 2.5 μg/mL Blasticidin (InvivoGen, ant-bl-5), and 25 μg/mL Hygromycin (InvivoGen, ant-hg). Standard propagation conditions consisted of plating 9×10^6, 4×10^6, 2×10^6 cells in a T225 flasks to be processed after 2, 3, or 4 days, respectively.
A source plate was generated containing 20 serially diluted compounds in DMSO (duplicate 8-point dose response). Next, 0.8 μL of compounds were transferred from the source plate to a destination plate prefilled with 79.2 μL of Ca^2+ free Tyrode's buffer (130 mM NaCl, 5 mM KCl, 1 mM MgCl2, 5 mM NaHCO3, 20 mM HEPES at pH 7.4). The destination plate was placed on a plate shaker (5 seconds at 2000 rpm) to mix. […] All transfer and mixing steps were conducted with an CyBi®-Well dispenser.
Cells were split by gently washing with DPBS (Euroclone, ECB4004L), followed by a 5-minute incubation (humidified, 37° C. with 5% CO2) with trypsin-EDTA solution (Euroclone, ECB3052D). Detached cells were diluted with standard complete medium without selective agents, counted, and plated in a 384 MTP microplate (GR4332CPL, Twin Helix) (10,000 cells/well in 25 μl/well) using a MATRIX WellMate dispenser. Plates were placed into a humidified incubator (37° C. with 5% CO2) overnight. The following day, 20 μL of doxycycline (Sigma, D9891) at 20 ng/mL in standard complete medium was added to cells with a CyBi @Drop dispenser to induce APOL1 G2 expression. After a 6-hour incubation (humidified, 37° C. with 5% CO2), cells were washed 3 times with Ca^2+ free Tyrode's Buffer (130 mM NaCl, 5 mM KCl, 1 mM MgCl2, 5 mM NaHCO3, 20 mM HEPES at pH 7.4) using a BIOTEK Microplate washer, such that 10 μL of buffer remained in each well after the final wash. Assay plates were then stored at room temperature for 10 minutes. Next, 10 μL of diluted compounds were transferred to the assay plate from the 2× compound plate using a CyBi®-Well dispenser. Compound incubation was then carried out at room temperature for 10 minutes. The assay plate was transferred to the […] and 20 μL of 10 mM Ca^2+ (final concentration=5 mM) Tyrode's buffer was injected.
Table B1 below summarizes the data from this experiment. Unless otherwise specified, AC50 and values are reported as the geometric mean of at least 2 assay runs on separate days. Each run represents the average of a technical replicate, where each compound was assayed twice in the same plate. A superscript † symbol indicates a value from the average of a technical replicate from a single assay run, where each compound was assayed twice in the same plate.
The AC50 values in Table B1 below reflect the compound's ability to prevent calcium influx by inhibiting APOL1. […] Compounds in Table B1 are referred to by the corresponding Compound Number in Table 1, which is also referred to in the synthetic examples. When one or more of the numbered compounds are identified by stereochemistry (for example, (R)- or (S)—), the specific stereoisomer for which data is provided in Table B1 may be identified by the elution order of such compound as described in the synthetic examples. To illustrate, Compound 2 is the first-eluting enantiomer of step 4 of Example 1 and Compound 3 is the second-eluting enantiomer of step 4 of Example 1. Further, by way of illustration, Compound 27 is the first-eluting enantiomeric mixture in step 4 of Example 7 and Compound 28 is the second-eluting enantiomeric mixture in step 4 of Example 7. […]

[2] = molecular target: T1, APOL1 G2; assay: Rescue of HEK293 cell death caused by overexpression of APOL1 (CellTiter-Glo luminescence), HEK293/T-REx APOL1 G2/clone #2; format: cell-based; settings: reversal of cell death caused by overexpression of APOL1; geometric mean of at least 2 assay runs, † = single assay run (technical duplicate)
Method: A HEK293 clonal cell line overexpressing APOL1 G2 (HEK293/T-REx APOL1 G2/clone #2) was maintained in 1×DMEM-GlutaMax (Gibco, 10569-010) media with 10% tetracycline-free FBS (Takara Bio USA, 631101), 5 μg/mL Blasticidin (Gibco, A1113903), and 100 μg/mL Zeocin (Invitrogen, R25001) in T75 flasks. In preparation for the assay, this media was aspirated and 2 mL of prewarmed TrypLE Express (Gibco, 12605-010) was added to a flask to detach cells. The flask was then incubated (humidified, 37° C. with 5% CO2) for 3-5 minutes. Afterwards, 8 mL of prewarmed cell assay media (lx DMEM-GlutaMax media with 10% tetracycline-free FBS) was added to the trypsinized cells. The suspension was gently mixed, and cells were counted using a Countess Cell Counting Chamber (Invitrogen). The suspension was diluted using cell assay media to generate a working stock solution (166,667 cells/mL). Using a MultiDrop Combi (Thermo Electron Corp), 30 μL (final cell density=5,000 cells/well) of the working stock solution was dispensed into each well of white 384-well assay ready plates (Nunc™, 164610) containing 6 ng/mL doxycycline, to induce APOL1 expression, and compound. All compounds were plated in a duplicate 8-point dilution series that consisted of 3-fold stepwise dilutions (0.5% DMSO final). Assay plates were incubated (humidified, 37° C. with 5% CO2) for 17 hours. After the incubation, the plates were equilibrated at room temperature for 1 hour. Next, 15 μl of CellTiter-Glo® reagent (Promega, G7570) was added to each well using a MultiDrop Combi. Plates were placed on an orbital shaker (500 rpm) for 5 minutes to induce cell lysis and then incubated at room temperature for 10 minutes. Luminescence was measured on an Envision plate reader. Collaborative Drug Discovery software was utilized for graphing data. Plots were generated using a four parameter logistic curve fit.
Table B2 below provides the results from this experiment. Unless otherwise specified, EC50 values are reported as the geometric mean of at least 2 assay runs on separate days. Each run represents the average of a technical replicate, where each compound was assayed twice in the same plate. A superscript t symbol indicates a value from the average of a technical replicate from a single assay run, where each compound was assayed twice in the same plate. Compounds in Table B2 are referred to by the corresponding Compound Number in Table 1, which is also referred to in the synthetic examples. When one or more of the numbered compounds are identified by stereochemistry (for example, (R)- or (S)—), the specific stereoisomer for which data is provided in Table B2 may be identified by the elution order of such compound as described in the synthetic examples. To illustrate, Compound 2 is the first-eluting enantiomer of step 4 of Example 1 and Compound 3 is the second-eluting enantiomer of step 4 of Example 1. Further, by way of illustration, Compound 27 is the first-eluting enantiomeric mixture in step 4 of Example 7 and Compound 28 is the second-eluting enantiomeric mixture in step 4 of Example 7. Then, Compound 27 is separated into Compound 29 (the first-eluting enantiomer) and Compound 30 (the second-eluting enantiomer) in Example 8, and Compound 28 is separated into Compound 31 (the first-eluting enantiomer) and Compound 32 (the second-eluting enantiomer) in Example 8. Absolute stereochemistry of such compounds may be identified by methods known in the art.
Rescue EC50 values reported in Table B2 below represent the half-maximal effective concentration for reversal of cell death caused by overexpression of APOL1.

Row | SMILES | AC50 [1] | EC50 [2]
1 | CC1(C)CC(COc2ccc(S(C)(=O)=O)cc2)CN1CCc1cccc(Cl)c1 (single isomer, unassigned) [Compound 43, (S) or (R)-1-(3-chlorophenethyl)-2,2-dimethyl-4-((4-(methylsulfonyl)phenoxy)methyl) pyrrolidine] | 0.237 µM | 0.031 µM
2 | CS(=O)(=O)c1ccc(OC[C@@H](O)CN2CCCCC2Cc2cccc(Cl)c2)cc1 (single isomer, unassigned) [Compound 63, (2S)-1-((S) or (R)-2-(3-chlorobenzyl)piperidin-1-yl)-3-(4-(methylsulfonyl)phenoxy)propan-2-ol] | 0.637 µM | 3.96 µM
3 | CS(=O)(=O)c1ccc(OC[C@H](O)CNC(Cc2cccc(Cl)c2)C2CC2)cc1 (stereo partly drawn) [Compound 102, (2R)-1-((2-(3-chlorophenyl)-1-cyclopropylethyl)a-mino)-3-(4-(methylsulfonyl)phe-noxy)propan-2-ol] | 2.19 µM | > 21.8 µM
4 | CN(c1ccc(OC[C@H](O)CN2CCC(c3cccc(Cl)c3)C2(C)C)cc1)S(C)(=O)=O (stereo partly drawn) [Compound 71, N-(4-((2R)-3-(3-(3-chlorophenyl)-2,2-dimethylpyrrolidin-1-yl)-2-hydroxypropoxy)phe-nyl)-N-methylmethanesulfon-amide] | 0.943 µM | 1.96 µM
5 | CS(=O)(=O)c1ccc(CCC2CCCN(CCc3cccc(Cl)c3)C2)cc1 (single isomer, unassigned) [Compound 40, (S) or (R)-1-(3-chlorophenethyl)-3-(4-(methylsulfonyl)phenethyl)piperidine] | < 0.118 µM | 0.746 µM
6 | CS(=O)(=O)c1ccc(OC[C@@H](O)CN2CCCCC2Cc2cccc(Cl)c2)cc1 (stereo partly drawn) [Compound 62, (2S)-1-(2-(3-chlorobenzyl)piperidin-1-yl)-3-(4-(methylsulfonyl)phenoxy)propan-2-ol] | 0.396 µM | 0.642 µM
7 | CS(=O)(=O)c1ccc(OCC2CCCCN(CCc3cccc(Cl)c3)C2)cc1 (single isomer, unassigned) [Compound 2, (R) or (S)-1-(3-chlorophenethyl)-3-((4-(methylsulfonyl)phenoxy)methyl)azepane] | 1.01 µM | 2.96 µM

Now from value to compound, other results behind:

Row | AC50 [1] | SMILES | EC50 [2]
8 | 0.382 µM | C[C@@H]1CC[C@H](COc2ccc(S(C)(=O)=O)cc2)CN1CCc1cccc(Cl)c1 [Compound 160, (2R,5S)-1-[2-(3-chlorophenyl)ethyl]-5-[(4-methanesulfonylphenoxy)methyl]-2-methylpiperidine] | 0.584 µM
9 | 0.098 µM | C[C@H]1CN(CCc2cccc(Cl)c2)C[C@@H]1COc1ccc(S(C)(=O)=O)cc1 (single isomer, unassigned) [Compound 154, (3R,4R or 3S, 4S)-1-[2-(3-chlorophenyl)-ethyl]-3-[(4-methanesulfon-ylphenoxy)meth-yl]-4-methyl-pyrrolidine] | 0.167 µM
10 | 0.311 µM | C[C@@H]1C[C@H](COc2ccc(S(=O)(=O)C3CNC3)cc2)CN1CCc1cccc(C#N)c1 [Compound 156, 3-{2-[(2R,4S)-4-{[4-(azetidine-3-sulfonyl)phenoxy]methyl}-2-methylpyrrolidin-1-yl]ethyl}benzonitrile] | 0.178 µM
11 | 6.98 µM | CN=S(C)(=O)c1ccc(OC[C@@H]2CN(CCc3cc(Cl)cc(C#N)c3)CCN2)cc1 (stereo partly drawn) [Compound 186, 3-chloro-5-{2-[(3S)-3-({4-[methyl(methyl-imino)oxo-λ^6-sulfanyl]pheno-xy}methyl)pipera-zin-1-yl]ethyl}benzo-nitrile] | 0.631 µM
12 | 0.144 µM | C[C@@H]1CN(CCc2cc(Cl)cc(C#N)c2)C[C@H]1COc1ccc(S(=O)(=O)CCS(C)(=O)=O)cc1 [Compound 108, 3-chloro-5-{2-[(3S,4S)-3-{[4-(2-methanesulfonyl-ethanesulfonyl)phenoxy]methyl}-4-methyl-pyrrolidin-1-yl]ethyl}benzonitrile] | 0.0504 µM
